In ChEMBL document CHEMBL1201862, “PubChem BioAssay data set” (2004):
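96-well plates; 48 h exposure; 5 concentrations. Endpoints by linear interpolation between flanking doses. Not reached: highest tested concentration assigned. GI50 is the concentration that inhibits growth by half.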 The source made the active and inactive calls. No stated cut-off is given here; in the data, active = GI50 up to about 1.1 µM and inactive = higher.

Assays:
Test in all cases: NCI-60 cell line screen, 48 h
SK-MEL-2 = tested on: SK-MEL-2
SNB-19 = tested on: SNB-19
786-0 = tested on: 786-0
UO-31 = tested on: UO-31
U-251 = tested on: U-251
UACC-62 = tested on: UACC-62
OVCAR-4 = tested on: OVCAR-4
M14 = tested on: M14
SF-539 = tested on: SF-539
SNB-75 = tested on: SNB-75
NCI-H226 = tested on: NCI-H226
KM12 = tested on: KM12
SK-OV-3 = tested on: SK-OV-3
A549 = tested on: A549
TK-10 = tested on: TK-10
RXF 393 = tested on: RXF 393
LOX IMVI = tested on: LOX IMVI
HCC 2998 = tested on: HCC 2998

Measured: GI50

CCOC(=O)C(=O)Nc1c(C)cccc1C(C)C
inactive: SK-MEL-2 > 100 µM | SNB-19 > 100 µM | 786-0 > 100 µM | UO-31 > 100 µM | U-251 > 100 µM | UACC-62 > 100 µM | OVCAR-4 > 100 µM | M14 > 100 µM | SF-539 > 100 µM | SNB-75 51.2 µM | NCI-H226 > 100 µM | KM12 > 100 µM | SK-OV-3 > 100 µM | A549 > 100 µM | TK-10 > 100 µM

CCCCCC(=O)OCCOCCOCCOCCOCCOCc1ccccc1
inactive: SK-MEL-2 > 100 µM | SNB-19 > 100 µM | 786-0 > 100 µM | U-251 > 100 µM | UACC-62 > 100 µM | OVCAR-4 > 100 µM | SF-539 > 100 µM | RXF 393 > 100 µM | LOX IMVI > 100 µM | NCI-H226 > 100 µM | KM12 > 100 µM | A549 > 100 µM | TK-10 > 100 µM

COC(=O)c1ccc(C(=O)OC)c2nc3cc(C)ccc3nc12
inactive: SK-MEL-2 > 100 µM | SNB-19 > 100 µM | 786-0 > 100 µM | UO-31 > 100 µM | U-251 > 100 µM | UACC-62 > 100 µM | OVCAR-4 > 100 µM | M14 > 100 µM | HCC 2998 > 100 µM | SF-539 > 100 µM | LOX IMVI > 100 µM | SNB-75 > 100 µM | NCI-H226 51.1 µM | KM12 > 100 µM | SK-OV-3 > 100 µM | A549 > 100 µM | TK-10 > 100 µM

CCOc1ccc(NC(=O)CCC(=O)NN)cc1
inactive: SK-MEL-2 > 100 µM | SNB-19 > 100 µM | 786-0 > 100 µM | UO-31 > 100 µM | U-251 > 100 µM | OVCAR-4 > 100 µM | M14 > 100 µM | HCC 2998 > 100 µM | RXF 393 > 100 µM | LOX IMVI > 100 µM | SNB-75 > 100 µM | NCI-H226 > 100 µM | KM12 > 100 µM | A549 > 100 µM | TK-10 > 100 µM

COc1ccccc1NC(=O)CC(=O)NNCC(=O)Nc1nnc(-c2ccccc2)o1
inactive: SK-MEL-2 > 100 µM | SNB-19 > 100 µM | 786-0 > 100 µM | UO-31 > 100 µM | U-251 > 100 µM | UACC-62 > 100 µM | OVCAR-4 > 100 µM | M14 > 100 µM | HCC 2998 > 100 µM | SF-539 > 100 µM | LOX IMVI > 100 µM | SNB-75 > 100 µM | NCI-H226 > 100 µM | KM12 > 100 µM | SK-OV-3 > 100 µM | A549 > 100 µM | TK-10 > 100 µM

Cc1cc(Cl)ccc1NC(=O)CCCC(=O)C1CCC/C1=N\NC(=O)CC#N (configuration not stated)
inactive: SK-MEL-2 > 100 µM | SNB-19 > 100 µM | 786-0 > 100 µM | UO-31 > 100 µM | U-251 > 100 µM | UACC-62 > 100 µM | OVCAR-4 > 100 µM | M14 > 100 µM | SF-539 > 100 µM | SNB-75 > 100 µM | NCI-H226 > 100 µM | KM12 > 100 µM | SK-OV-3 > 100 µM | A549 > 100 µM | TK-10 > 100 µM

c1ccc2c(c1)Sc1ccccc1N2C1CN2CCC1CC2 (configuration not stated)
inactive: SK-MEL-2 4.46 µM | SNB-19 18.8 µM | 786-0 13 µM | UO-31 16.7 µM | U-251 15.6 µM | UACC-62 15.2 µM | OVCAR-4 17.7 µM | HCC 2998 14.5 µM | SF-539 14 µM | LOX IMVI 10.9 µM | SNB-75 6 µM | NCI-H226 4.09 µM | KM12 15.2 µM | SK-OV-3 19.5 µM | A549 16.7 µM | TK-10 14 µM

COc1ccc(NC(=O)NS(=O)(=O)c2ccc(C)cc2)nn1
inactive: SK-MEL-2 > 100 µM | SNB-19 > 100 µM | 786-0 > 100 µM | UO-31 > 100 µM | U-251 > 100 µM | UACC-62 > 100 µM | OVCAR-4 > 100 µM | M14 > 100 µM | HCC 2998 > 100 µM | SF-539 > 100 µM | LOX IMVI > 100 µM | SNB-75 > 100 µM | NCI-H226 > 100 µM | KM12 > 100 µM | SK-OV-3 > 100 µM | A549 > 100 µM | TK-10 > 100 µM

CC1CC(c2ccccc2)=Nc2ccccc2S1(=O)=O (configuration not stated)
inactive: SK-MEL-2 14.8 µM | SNB-19 14.3 µM | 786-0 17.2 µM | UO-31 15.6 µM | U-251 18.1 µM | UACC-62 20.5 µM | OVCAR-4 19 µM | M14 20.7 µM | HCC 2998 5.2 µM | SF-539 18.4 µM | RXF 393 15.3 µM | LOX IMVI 17.3 µM | SNB-75 19.2 µM | KM12 16.3 µM | SK-OV-3 19.7 µM | A549 23.6 µM | TK-10 23 µM

COc1ccc2c(c1)[n+]([O-])c(-c1ccc(Br)cc1)c(N)[n+]2[O-]
inactive: SK-MEL-2 32.4 µM | SNB-19 > 100 µM | 786-0 78 µM | UO-31 80.2 µM | U-251 37.4 µM | OVCAR-4 35.6 µM | SF-539 36.1 µM | RXF 393 34.6 µM | SNB-75 63.1 µM | NCI-H226 66.5 µM | KM12 58.5 µM | SK-OV-3 92.7 µM | A549 32.1 µM

C=CCN(N=O)C(=O)N(CCC)CCCC(NC(C)=O)C(=O)NCc1ccccc1 (configuration not stated)
inactive: SK-MEL-2 > 100 µM | SNB-19 > 100 µM | 786-0 > 100 µM | UO-31 > 100 µM | U-251 > 100 µM | UACC-62 > 100 µM | OVCAR-4 > 100 µM | M14 > 100 µM | SF-539 > 100 µM | RXF 393 > 100 µM | LOX IMVI > 100 µM | SNB-75 > 100 µM | KM12 > 100 µM | SK-OV-3 > 100 µM | A549 > 100 µM | TK-10 > 100 µM

COc1ccc(C(C#N)NNC(=O)Cc2ccccc2)cc1OC (configuration not stated)
inactive: SK-MEL-2 > 100 µM | 786-0 > 100 µM | UO-31 > 100 µM | U-251 > 100 µM | UACC-62 > 100 µM | OVCAR-4 > 100 µM | M14 > 100 µM | SF-539 > 100 µM | RXF 393 > 100 µM | LOX IMVI > 100 µM | SNB-75 39.9 µM | NCI-H226 > 100 µM | KM12 > 100 µM | SK-OV-3 > 100 µM | A549 > 100 µM | TK-10 > 100 µM

Nc1ccc(C(=O)N/C(=C\c2cccc([N+](=O)[O-])c2)c2nc3cc(Cl)ccc3[nH]2)cc1
inactive: SK-MEL-2 > 100 µM | SNB-19 > 100 µM | 786-0 92 µM | UO-31 36.1 µM | U-251 > 100 µM | UACC-62 > 100 µM | OVCAR-4 50.4 µM | M14 74.3 µM | HCC 2998 > 100 µM | SF-539 > 100 µM | RXF 393 > 100 µM | KM12 > 100 µM | SK-OV-3 > 100 µM | A549 77.3 µM | TK-10 > 100 µM
